{"source": "patent US12144874B2", "about": "“Synthesis and composition of photodynamic therapeutic agents for the targeted treatment of cancer” (On Target Laboratories, LLC, priority 2015, dated 2024)", "key": {"[1]": {"system": "KB cells"}, "[2]": {"experiment": "Activation wavelength of non-targeted PDT agents", "format": "physicochemical", "settings": "Table 1"}, "[3]": {"system": "KB tumors", "experiment": "Time dependent whole body fluorescence imaging of KB tumor bearing nude mice (IVIS imager)", "format": "in vivo", "source_text": "FIG. 3 depicts an overlay of half body (top raw) and whole body (bottom raw) fluorescence image over white light images after adjusting the threshold. KB tumor bearing mice injected with 10 nmol of BPheid-a (1) and image with IVIS imager (ex=745 nm, em=ICG, exposure time=1 s) at different time intervals.\nFIG. 13 depicts an overlay of whole body fluorescence image over white light images after adjusting the threshold. KB tumor bearing mice injected with 10 nmol of 65a and image with IVIS imager (ex=745 nm, em=ICG, exposure time=1 s) at different time intervals.\nIn the following examples, the in vivo efficacy of the compounds is determined using KB tumor cell xenograft in nude mice. In these studies, KB cells were implanted subcutaneously and growth of the tumors was monitored. For time dependent whole body imaging, once tumors become 250-350 mm^3, the compounds were injected via tail vein and accumulation of the PS in the tumor was monitored (over 48 hours) using fluorescence imaging using IVIS imager. Moreover, once tumors grow to […], the compounds were injected via tail vein. Three hours (3 h) after injecting with the compound, tumor was treated with laser beam (75 mW/cm^2, 137 J/cm^2, exposure diameter=7.5-8 mm) for […]. In vivo efficacy of BPheid-a was evaluated by monitoring reduction of tumor volume."}, "[4]": {"system": "subcutaneous KB tumor", "experiment": "In vivo PDT efficacy on growth of subcutaneous KB tumor xenograft in nude mice", "description": "The growth of the tumor was monitored (images were taken) and tumor volume was measured using caliper.\nIn the following examples, the in vivo efficacy of the compounds is determined using KB tumor cell xenograft in nude mice. In these studies, KB cells were implanted subcutaneously and growth of the tumors was monitored. […] Moreover, once tumors grow to […], the compounds were injected via tail vein. […] In vivo efficacy of BPheid-a was evaluated by monitoring reduction of tumor volume.\nKB cells that overexpressed folate receptor were implanted subcutaneously into female nude mice and allowed to grow to ˜50 mm^3 prior to initiation of treatment with 50 nmol of BPheid-a (1). […] In vivo efficacy of BPheid-a was evaluated by monitoring reduction of tumor volume."}, "[5]": {"system": "KB cells", "experiment": "cells", "settings": "Homo sapiens"}, "[6]": {"system": "subcutaneous KB tumor", "experiment": "In vivo PDT efficacy on growth of subcutaneous KB tumor xenograft in nude mice", "settings": "25 nmol dose, laser 75 mW/cm^2, 137 J/cm^2, 38 min, 3 h after injection"}, "[7]": {"settings": "dogs; cited from earlier work"}, "[8]": {"settings": "rats; cited from earlier work"}, "[9]": {"system": "folate receptor positive cancer", "settings": "cited from earlier work"}, "[10]": {"settings": "Table 1, non-targeted PDT agents, free drugs in DMSO, 2 h incubation, laser 6 mW/cm^2, 12 J/cm^2, 32 min, then 24 h"}, "[11]": {"settings": "10 nmol injected, KB tumor bearing nude mice"}, "[12]": {"settings": "50 nmol dose, laser 75 mW/cm^2, 137 J/cm^2, 38 min, 3 h after injection"}}, "note": "“Also recorded” adds a separate entry of the source. Where two headings read alike, the source gives them in different places.", "data": [{"compound": "CC[C@H]1c2cc3[nH]c4c(c3C)C(=O)[C@H](C(=O)OC)c4c3nc(cc4[nH]c(cc(n2)[C@@H]1C)c(C(C)=O)c4C)[C@@H](C)[C@@H]3CCC(=O)O", "note": "[Compound 1, Bacteriopheophorbide-a, reference compound]", "values": [{"measurement": "EC50", "setting": "[1]; [10]", "value": 745, "unit": "nM"}, {"measurement": "EC50", "setting": "[1]; Table 2, mitochondrial-targeted modified PDT agents, free drugs in DMSO, 2 h incubation, laser 32 min, then 24 h", "value": 745, "unit": "nM"}, {"measurement": "IC50", "setting": "[1]; Table 3, nucleus-targeted modified PDT agents, free drugs in DMSO, 2 h incubation, laser 32 min, then 24 h", "value": 745, "unit": "nM"}, {"measurement": "EC50", "setting": "[1]; Table 7, folate-targeted releasable BPheid-a conjugates, different soluble linkers", "value": 745, "unit": "nM"}, {"measurement": "EC50", "setting": "[1]; Table 9, folate conjugates releasing cationic BPheid-a analogues", "value": 745, "unit": "nM"}, {"measurement": "EC50", "setting": "[1]; Table 11, folate conjugates releasing anionic BPheid-a analogues", "value": 745, "unit": "nM"}, {"measurement": "Activation Wavelength", "setting": "[2]", "value": 750, "unit": "nm"}, {"measurement": "Fluorescence in the tumor (level or comparison with other conjugates)", "setting": "[3]; [11]", "value": "very low"}, {"measurement": "Tumor specificity / uptake in other tissues (whole body images)", "setting": "[3]; [11]", "value": "nonspecific uptake of BPheid-a in the skin"}, {"measurement": "Time to localize / accumulate in the tumor after administration", "setting": "[3]; 10 nmol injected, KB tumor bearing nude mice, fluorescence imaging", "value": "~24", "unit": "h"}, {"measurement": "Effect on growth of subcutaneous KB tumor, in words", "setting": "[4]; [12]", "value": "some effect"}, {"measurement": "KB tumor doubling time after treatment", "setting": "[4]; 50 nmol, laser 75 mW/cm^2, 137 J/cm^2, 38 min, 3 h after injection", "value": "< 1", "unit": "week"}, {"measurement": "Tumor volume reached by the end of the two week treatment period", "setting": "[4]; 50 nmol, laser 38 min 3 h after injection", "value": "> 600", "unit": "mm^3"}]}, {"compound": "CC[C@H]1c2cc3[n-]c4c(c3C)C(=O)[C@H](C(=O)OC)c4c3nc(cc4[n-]c(cc(n2)[C@@H]1C)c(C(C)=O)c4C)[C@@H](C)[C@@H]3CCC(=O)O.[Pd+2]", "note": "[Compound 2, Tookad, reference compound]", "values": [{"measurement": "EC50", "setting": "[1]; [10]", "value": 10400, "unit": "nM"}, {"measurement": "Activation Wavelength", "setting": "[2]", "value": 760, "unit": "nm"}]}, {"compound": "CC[C@H]1c2cc3[nH]c(c(CC(=O)OC)c4nc(cc5[nH]c(cc(n2)[C@@H]1C)c(C(C)=O)c5C)[C@@H](C)[C@@H]4CCC(=O)NCCC[C@H](NC(=O)CC[P+](c1ccccc1)(c1ccccc1)c1ccccc1)C(=O)OC(C)(C)C)c(C(=O)N[N+](C)(C)C)c3C", "note": "[Compound 15]", "values": [{"measurement": "EC50", "setting": "[5]", "value": 47.6, "unit": "nM"}]}, {"compound": "CC[C@H]1c2cc3[nH]c4c(c3C)C(=O)C(C(=O)OC)c4c3nc(cc4[nH]c(cc(n2)[C@@H]1C)c(C(C)=O)c4C)[C@@H](C)[C@@H]3CCC(=O)NNC(=O)OCCSSC[C@H](NC(=O)[C@H](CC(=O)NCCS(=O)(=O)O)NC(=O)CC[C@H](NC(=O)c1ccc(NCc2cnc3nc(N)[nH]c(=O)c3n2)cc1)C(=O)O)C(=O)O", "note": "(stereo partly shown) [Compound 65a]", "values": [{"measurement": "Effect on growth of subcutaneous KB tumor, in words", "setting": "[4]; [12]", "value": "completely cured with no recurrence during the monitored time (13 weeks)"}, {"measurement": "Effect on growth of subcutaneous KB tumor, in words", "setting": "[4]; 50 and 25 nmol doses, laser 38 min 3 h after injection", "value": "tumor regression at both doses (50 and 25 nmol)"}, {"measurement": "Effect on growth of subcutaneous KB tumor, in words", "setting": "[6]", "value": "completely cured with no recurrence during the monitored time (4 weeks)"}]}, {"compound": "CC[C@H]1c2cc3[nH]c4c(c3C)C(=O)C(C(=O)OC)c4c3nc(cc4[nH]c(cc(n2)[C@@H]1C)c(C(C)=O)c4C)[C@@H](C)[C@@H]3CCC(=O)NC(CC(=O)NC1C(O)OC(CO)C(O)C1O)C(=O)NNC(=O)OCCSSC[C@H](NC(=O)[C@H](CC(=O)NCCS(=O)(=O)O)NC(=O)CC[C@H](NC(=O)c1ccc(NCc2cnc3nc(N)[nH]c(=O)c3n2)cc1)C(=O)O)C(=O)O", "note": "(stereo partly shown) [Compound 92a]", "values": [{"measurement": "Activity class on KB cancer cells in culture (active / highly active)", "setting": "[1]", "value": "active"}, {"measurement": "EC50", "setting": "[1]; 2 h", "value": 32.8, "unit": "nM"}, {"measurement": "Effect on growth of subcutaneous KB tumor, in words", "setting": "[4]; [12]", "value": "completely reduced the tumor"}]}, {"compound": "CC[C@H]1c2cc3[nH]c4c(c3C)C(=O)C(C(=O)OC)c4c3nc(cc4[nH]c(cc(n2)[C@@H]1C)c(C(C)=O)c4C)[C@@H](C)[C@@H]3CCC(=O)NCCCC(C(=O)NCCSSC[C@H](NC(=O)[C@H](CC(=O)NCCS(=O)(=O)O)NC(=O)CC[C@H](NC(=O)c1ccc(NCc2cnc3nc(N)[nH]c(=O)c3n2)cc1)C(=O)O)C(=O)O)[N+](C)(C)C", "note": "(stereo partly shown) [Compound 100]", "values": [{"measurement": "EC50", "setting": "[1]; 2 h", "value": 12.8, "unit": "nM"}, {"measurement": "Effect on growth of subcutaneous KB tumor, in words", "setting": "[4]; [12]", "value": "completely cure the tumor and showed tumor regression for 2 weeks; also recorded: completely cured with no recurrence during the monitored time (2 weeks)"}]}, {"compound": "CC[C@H]1c2cc3[nH]c4c(c3C)C(=O)C(C(=O)OC)c4c3nc(cc4[nH]c(cc(n2)[C@@H]1C)c(C(C)=O)c4C)[C@@H](C)[C@@H]3CCC(=O)NC(Cc1ccc(N(CCCl)CCCl)cc1)C(=O)NNC(=O)OCCSSC[C@H](NC(=O)[C@H](CC(=O)NCCS(=O)(=O)O)NC(=O)CC[C@H](NC(=O)c1ccc(NCc2cnc3nc(N)[nH]c(=O)c3n2)cc1)C(=O)O)C(=O)O", "note": "(stereo partly shown) [Compound 112a]", "values": [{"measurement": "EC50", "setting": "[1]; Table 12, folate-targeted releasable BPheid-a, miscellaneous", "value": 0.5, "unit": "nM"}, {"measurement": "Fluorescence in the tumor (level or comparison with other conjugates)", "setting": "[3]; [11]", "value": "more highly fluorescent"}, {"measurement": "Tumor specificity / uptake in other tissues (whole body images)", "setting": "[3]; [11]", "value": "highly specific for FR-positive tumors"}, {"measurement": "Localization in whole body images", "setting": "[3]; 10 nmol, image 2 h after administering", "value": "localized mainly in the tumor"}]}, {"compound": "OTL38", "values": [{"measurement": "Toxicity", "setting": "[7]", "value": "no toxicity"}, {"measurement": "Toxicity", "setting": "[8]", "value": "no toxicity"}, {"measurement": "Malignant lesions removed with the aid of OTL38 versus without it", "setting": "[9]; clinical trial, image-guided surgery", "value": "approximately 5 ×"}, {"measurement": "Tumor cells removed by OTL38-guided resection", "setting": "[9]; image-guided resection", "value": "approximately 95%"}]}, {"compound": "Photofrin [Compound 7]", "values": [{"measurement": "Activation Wavelength", "setting": "[2]", "value": 630, "unit": "nm"}]}, {"compound": "Visudyne [Compound 5, reference compound]", "values": [{"measurement": "EC50", "setting": "[1]; [10]", "value": 838, "unit": "nM"}, {"measurement": "Activation Wavelength", "setting": "[2]", "value": 689, "unit": "nm"}]}, {"compound": "tookad soluble [Compound 4, reference compound]", "values": [{"measurement": "EC50", "setting": "[1]; [10]", "value": 7760, "unit": "nM"}, {"measurement": "Activation Wavelength", "setting": "[2]", "value": 750, "unit": "nm"}]}]}
